Experimental data reported in the supplement of paper PMC10307832.

Key:
Experiment in all cases: relative viability (nuclei count vs DMSO), 5 days (fraction); higher = more cells survive
201T = system: 201T
Summary of the method: (§1)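 One day after seeding in 1536-well plates, lung cancer cell lines were dosed by pin tool. Dosing was either single-drug or a fixed anchor-drug dose plus five library-drug doses (not always all listed) in √10 steps. After 5 days, nuclei were stained in one fix-and-stain step and counted on 4× images, and relative viability is the nuclei count of treated wells over that of vehicle wells, given as the median of duplicate plates.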

LCLC-97TM1 = system: LCLC-97TM1
Summary of the method: as §1

NCI-H650 = system: NCI-H650
Summary of the method: as §1

A-427 = system: A-427
Summary of the method: as §1

NCI-H460 = system: NCI-H460
Summary of the method: as §1

NCI-H727 = system: NCI-H727
Summary of the method: as §1

NCI-H2023 = system: NCI-H2023
Summary of the method: as §1

BEN = system: BEN
Summary of the method: as §1

NCI-H661 = system: NCI-H661
Summary of the method: as §1

NCI-H1650 = system: NCI-H1650
Summary of the method: as §1

NCI-H1651 = system: NCI-H1651
Summary of the method: as §1

PC-3 [JPC-3] = system: PC-3 [JPC-3]
Summary of the method: as §1

NCI-H596 = system: NCI-H596
Summary of the method: as §1

NCI-H520 = system: NCI-H520
Summary of the method: as §1

H3255 = system: H3255
Summary of the method: as §1

LC-2-ad = system: LC-2-ad
Summary of the method: as §1

NCI-H2087 = system: NCI-H2087
Summary of the method: as §1

CAL-12T = system: CAL-12T
Summary of the method: as §1

ABC-1 = system: ABC-1
Summary of the method: as §1

NCI-H1915 = system: NCI-H1915
Summary of the method: as §1

NCI-H441 = system: NCI-H441
Summary of the method: as §1

Nc1ccn([C@@H]2O[C@H](CO)[C@@H](O)[C@@H]2O)c(=O)n1 [Cytarabine] + CC(C)C[C@H](NC(=O)[C@H](Cc1ccccc1)NC(=O)c1cnccn1)B(O)O [Bortezomib] (partner 0.002 µM)
relative viability (201T; first compound 0.005 µM): 1.07
relative viability (201T; first compound 0.01581 µM): 1.11
relative viability (201T; first compound 0.05 µM): 0.866
relative viability (201T; first compound 0.1581 µM): 1.01
relative viability (201T; first compound 0.5 µM): 1
relative viability (LCLC-97TM1; first compound 0.005 µM): 0.277
relative viability (LCLC-97TM1; first compound 0.01581 µM): 0.349
relative viability (LCLC-97TM1; first compound 0.05 µM): 0.132
relative viability (LCLC-97TM1; first compound 0.1581 µM): 0.084
relative viability (LCLC-97TM1; first compound 0.5 µM): 0.0888
relative viability (NCI-H650; first compound 0.005 µM): 0.606
relative viability (NCI-H650; first compound 0.01581 µM): 0.486
relative viability (NCI-H650; first compound 0.05 µM): 0.349
relative viability (NCI-H650; first compound 0.1581 µM): 0.223
relative viability (NCI-H650; first compound 0.5 µM): 0.209
relative viability (A-427; first compound 0.005 µM): 0.752
relative viability (A-427; first compound 0.01581 µM): 0.46
relative viability (A-427; first compound 0.05 µM): 0.276
relative viability (A-427; first compound 0.1581 µM): 0.171
relative viability (A-427; first compound 0.5 µM): 0.166
relative viability (NCI-H460; first compound 0.005 µM): 0.677
relative viability (NCI-H460; first compound 0.01581 µM): 0.968
relative viability (NCI-H460; first compound 0.05 µM): 0.265
relative viability (NCI-H460; first compound 0.1581 µM): 0.028
relative viability (NCI-H460; first compound 0.5 µM): 0.0192
relative viability (NCI-H727; first compound 0.005 µM): 0.524
relative viability (NCI-H727; first compound 0.01581 µM): 0.558
relative viability (NCI-H727; first compound 0.05 µM): 0.484
relative viability (NCI-H727; first compound 0.1581 µM): 0.334
relative viability (NCI-H727; first compound 0.5 µM): 0.315
relative viability (NCI-H2023; first compound 0.005 µM): 0.469
relative viability (NCI-H2023; first compound 0.01581 µM): 0.198
relative viability (NCI-H2023; first compound 0.05 µM): 0.17
relative viability (NCI-H2023; first compound 0.1581 µM): 0.0751
relative viability (NCI-H2023; first compound 0.5 µM): 0.0603
relative viability (BEN; first compound 0.005 µM): 0.667
relative viability (BEN; first compound 0.01581 µM): 0.742
relative viability (BEN; first compound 0.05 µM): 0.413
relative viability (BEN; first compound 0.1581 µM): 0.282
relative viability (BEN; first compound 0.5 µM): 0.233
relative viability (NCI-H661; first compound 0.005 µM): 0.997
relative viability (NCI-H661; first compound 0.01581 µM): 0.667
relative viability (NCI-H661; first compound 0.05 µM): 0.596
relative viability (NCI-H661; first compound 0.1581 µM): 0.381
relative viability (NCI-H661; first compound 0.5 µM): 0.246
relative viability (NCI-H1650; first compound 0.005 µM): 0.215
relative viability (NCI-H1650; first compound 0.01581 µM): 0.166
relative viability (NCI-H1650; first compound 0.05 µM): 0.172
relative viability (NCI-H1650; first compound 0.1581 µM): 0.161
relative viability (NCI-H1650; first compound 0.5 µM): 0.154
relative viability (NCI-H1651; first compound 0.005 µM): 1.09
relative viability (NCI-H1651; first compound 0.01581 µM): 0.916
relative viability (NCI-H1651; first compound 0.05 µM): 0.808
relative viability (NCI-H1651; first compound 0.1581 µM): 0.7
relative viability (NCI-H1651; first compound 0.5 µM): 0.663
relative viability (PC-3 [JPC-3]; first compound 0.005 µM): 0.811
relative viability (PC-3 [JPC-3]; first compound 0.01581 µM): 0.795
relative viability (PC-3 [JPC-3]; first compound 0.05 µM): 0.779
relative viability (PC-3 [JPC-3]; first compound 0.1581 µM): 0.503
relative viability (PC-3 [JPC-3]; first compound 0.5 µM): 0.511
relative viability (NCI-H596; first compound 0.005 µM): 0.788
relative viability (NCI-H596; first compound 0.01581 µM): 0.853
relative viability (NCI-H596; first compound 0.05 µM): 0.904
relative viability (NCI-H596; first compound 0.1581 µM): 0.62
relative viability (NCI-H596; first compound 0.5 µM): 0.704
relative viability (NCI-H520; first compound 0.005 µM): 0.412
relative viability (NCI-H520; first compound 0.01581 µM): 0.363
relative viability (NCI-H520; first compound 0.05 µM): 0.697
relative viability (NCI-H520; first compound 0.1581 µM): 0.468
relative viability (NCI-H520; first compound 0.5 µM): 0.34
relative viability (H3255; first compound 0.005 µM): 0.745
relative viability (H3255; first compound 0.01581 µM): 0.797
relative viability (H3255; first compound 0.05 µM): 0.575
relative viability (H3255; first compound 0.1581 µM): 0.517
relative viability (H3255; first compound 0.5 µM): 0.468
relative viability (LC-2-ad; first compound 0.005 µM): 1.01
relative viability (LC-2-ad; first compound 0.01581 µM): 0.888
relative viability (LC-2-ad; first compound 0.05 µM): 0.954
relative viability (LC-2-ad; first compound 0.1581 µM): 0.434
relative viability (LC-2-ad; first compound 0.5 µM): 0.145
relative viability (NCI-H2087; first compound 0.005 µM): 0.631
relative viability (NCI-H2087; first compound 0.01581 µM): 1.01
relative viability (NCI-H2087; first compound 0.05 µM): 0.84
relative viability (NCI-H2087; first compound 0.1581 µM): 0.573
relative viability (NCI-H2087; first compound 0.5 µM): 0.338
relative viability (CAL-12T; first compound 0.005 µM): 0.933
relative viability (CAL-12T; first compound 0.01581 µM): 0.715
relative viability (CAL-12T; first compound 0.05 µM): 0.948
relative viability (CAL-12T; first compound 0.1581 µM): 0.379
relative viability (CAL-12T; first compound 0.5 µM): 0.267
relative viability (ABC-1; first compound 0.005 µM): 0.307
relative viability (ABC-1; first compound 0.01581 µM): 0.345
relative viability (ABC-1; first compound 0.05 µM): 0.285
relative viability (ABC-1; first compound 0.1581 µM): 0.233
relative viability (ABC-1; first compound 0.5 µM): 0.29
relative viability (NCI-H1915; first compound 0.005 µM): 0.74
relative viability (NCI-H1915; first compound 0.01581 µM): 0.952
relative viability (NCI-H1915; first compound 0.05 µM): 0.8
relative viability (NCI-H1915; first compound 0.1581 µM): 0.385
relative viability (NCI-H1915; first compound 0.5 µM): 0.25
relative viability (NCI-H441; first compound 0.005 µM): 0.612
relative viability (NCI-H441; first compound 0.01581 µM): 0.376
relative viability (NCI-H441; first compound 0.05 µM): 0.483
relative viability (NCI-H441; first compound 0.1581 µM): 0.283
relative viability (NCI-H441; first compound 0.5 µM): 0.162
